Target: NaV1.6 (Homo sapiens (Human), UniProt Q9UQD0)
Experiment: Sodium influx assay (ANG2 dye), NaV1.6
Type: cell-based
Details: Trex HEK293 cells, human α-subunit + β1-subunit; inactivated state; read-out: Flux NaV1.6 IC50

NaV1.6, sequence (Q9UQD0 whole entry): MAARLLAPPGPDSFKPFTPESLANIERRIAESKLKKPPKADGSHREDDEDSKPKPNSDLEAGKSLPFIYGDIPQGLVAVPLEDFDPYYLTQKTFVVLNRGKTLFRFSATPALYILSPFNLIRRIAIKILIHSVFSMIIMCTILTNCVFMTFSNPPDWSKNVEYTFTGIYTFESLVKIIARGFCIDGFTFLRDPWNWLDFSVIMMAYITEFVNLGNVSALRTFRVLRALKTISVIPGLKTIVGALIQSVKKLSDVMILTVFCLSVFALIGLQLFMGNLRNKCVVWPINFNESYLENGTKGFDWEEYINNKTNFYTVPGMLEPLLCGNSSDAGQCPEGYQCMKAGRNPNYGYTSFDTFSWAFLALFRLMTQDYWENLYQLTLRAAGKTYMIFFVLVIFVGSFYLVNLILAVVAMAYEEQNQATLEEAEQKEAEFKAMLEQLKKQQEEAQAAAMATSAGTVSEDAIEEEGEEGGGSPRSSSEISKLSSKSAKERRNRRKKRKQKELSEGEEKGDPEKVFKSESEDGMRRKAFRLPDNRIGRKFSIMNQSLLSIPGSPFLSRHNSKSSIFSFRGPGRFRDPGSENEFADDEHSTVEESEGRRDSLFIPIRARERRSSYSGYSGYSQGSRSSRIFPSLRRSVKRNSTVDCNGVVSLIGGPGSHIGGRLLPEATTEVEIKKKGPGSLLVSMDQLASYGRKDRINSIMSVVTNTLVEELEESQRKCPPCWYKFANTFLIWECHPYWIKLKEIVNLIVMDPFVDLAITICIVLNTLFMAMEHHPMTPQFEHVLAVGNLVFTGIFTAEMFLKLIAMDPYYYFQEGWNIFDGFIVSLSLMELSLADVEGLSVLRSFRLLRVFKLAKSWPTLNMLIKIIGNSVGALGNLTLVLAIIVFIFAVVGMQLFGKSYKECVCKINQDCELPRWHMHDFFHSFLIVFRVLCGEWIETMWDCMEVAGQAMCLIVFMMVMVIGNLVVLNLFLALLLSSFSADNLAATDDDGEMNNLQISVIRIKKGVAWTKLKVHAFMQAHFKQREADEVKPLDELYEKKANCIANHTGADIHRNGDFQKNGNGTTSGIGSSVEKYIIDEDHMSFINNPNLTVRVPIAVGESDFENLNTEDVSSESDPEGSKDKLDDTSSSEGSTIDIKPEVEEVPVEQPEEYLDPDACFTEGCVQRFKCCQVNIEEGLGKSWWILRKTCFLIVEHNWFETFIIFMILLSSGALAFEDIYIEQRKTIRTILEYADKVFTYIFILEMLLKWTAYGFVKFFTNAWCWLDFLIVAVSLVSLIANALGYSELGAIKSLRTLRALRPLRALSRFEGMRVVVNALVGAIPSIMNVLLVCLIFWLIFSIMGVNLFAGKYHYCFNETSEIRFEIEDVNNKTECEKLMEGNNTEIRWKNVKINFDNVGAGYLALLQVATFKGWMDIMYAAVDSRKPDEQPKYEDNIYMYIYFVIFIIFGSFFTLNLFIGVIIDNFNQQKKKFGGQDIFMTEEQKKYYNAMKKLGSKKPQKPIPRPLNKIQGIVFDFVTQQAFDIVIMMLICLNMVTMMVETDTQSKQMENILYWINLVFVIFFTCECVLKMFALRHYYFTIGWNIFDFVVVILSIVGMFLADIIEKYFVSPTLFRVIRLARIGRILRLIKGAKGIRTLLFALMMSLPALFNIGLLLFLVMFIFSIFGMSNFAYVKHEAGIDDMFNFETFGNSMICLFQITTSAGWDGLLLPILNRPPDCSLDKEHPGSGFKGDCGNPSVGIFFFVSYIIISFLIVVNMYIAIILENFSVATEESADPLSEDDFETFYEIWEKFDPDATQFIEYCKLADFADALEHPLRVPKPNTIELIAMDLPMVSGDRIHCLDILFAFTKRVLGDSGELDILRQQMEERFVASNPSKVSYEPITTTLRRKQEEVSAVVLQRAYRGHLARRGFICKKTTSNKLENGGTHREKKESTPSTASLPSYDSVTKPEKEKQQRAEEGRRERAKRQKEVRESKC
NaV1.6, sequence (Q07699 19-218 partner): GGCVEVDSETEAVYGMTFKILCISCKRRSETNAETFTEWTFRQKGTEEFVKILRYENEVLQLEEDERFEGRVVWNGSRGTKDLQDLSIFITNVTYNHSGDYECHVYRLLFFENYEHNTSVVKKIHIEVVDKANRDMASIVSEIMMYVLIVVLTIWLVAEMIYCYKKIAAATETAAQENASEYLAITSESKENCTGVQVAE

IC50: 272 nM
SMILES: Cc1cc(S(=O)(=O)Nc2cscn2)c(F)cc1N(C)[C@H]1CCN(Cc2ccccc2)C1 [Compound 1, (S)-4-((1-benzylpyrrolidin-3-yl)(methyl)amino)-2-fluoro-5-methyl-N-(thiazol-4-yl)benzenesulfonamide]

— patent US20250333404A1, “DEUTERATED COMPOUNDS” (Neurocrine Biosciences, Inc., priority 2022, published 2025)
